20 compounds from patent US20050003000A1, “Method for the formation of ibuprofen crystals” (priority 2001, published 2005) can be followed below.

The series in a line: Powder dissolution / in vitro release rate of the pure active compound, phosphate buffer pH 7.4 USP XXIV, paddle process 100 rpm. Type of series: physicochemical. The settings on record: for Amount released [%] after 2 min: Table 3, ibuprofen crystallized by displacement precipitation; for Rate of dissolution (in words) / Active compound dissolved after 5 min / Active compound dissolved after 8 min: 3 l scale crystallizate. As for the experimental part: The measurements of the release rate was carried out according to USP XXIV.
• 1. 80 g of ibuprofen are dissolved in 100 ml of isopropanol at 40° C. Precipitation is then carried out by addition of ice water (450 ml/stirrer speed 50 rpm) during the course of 70 min. During this process cooling to 10° C. takes place. The crystals are recovered by filtration and dried in vacuo. […] 3.2 g of sucrose monolaurate are added as an additive. Precipitation is then carried out by addition of ice water (450 ml/stirrer speed 200 rpm) during the course of 70 min. During this process cooling to 10° C. takes place. The crystals are recovered by filtration, washed with ice water (3×50 ml) and dried in vacuo. […] 8 g of Tween®80 are added as an additive. Precipitation is then carried out by addition of ice water (450 ml/stirrer speed 200 rpm) during the course of 70 min. During this process cooling to 10° C. takes place. The crystals are recovered by filtration, washed with ice water (3×50 ml) and dried in vacuo. […] 80 g of ibuprofen are dissolved in 100 ml of isopropanol at 40° C. 3 g of sucrose monolaurate are added as an additive. Precipitation is then carried out by addition of ice water (450 ml/stirrer speed 200 rpm) during the course of 70 min; during this process, cooling to 10° C. takes place; the crystals are recovered by filtration, washed with ice water (3×150 ml) and dried in vacuo.

Where [1] appears, read: Table 1, ibuprofen powder, time 0 min.
Where [2] appears, read: Table 1, ibuprofen powder, time 2 min.
Setting [3] is: Table 1, ibuprofen powder, time 5 min.
[4] abbreviates: Table 1, ibuprofen powder, time 8 min.
Where [5] appears, read: Table 1, ibuprofen powder, time 10 min.
[6] abbreviates: Table 1, ibuprofen powder, time 15 min.
The mark [7] stands for this setting: Table 1, ibuprofen powder, time 20 min.
Where [8] appears, read: Table 2, ibuprofen powder, time 0.
Setting [9] is: Table 2, ibuprofen powder, time 2.
Setting [10] is: Table 2, ibuprofen powder, time 5.
The mark [11] stands for this setting: Table 2, ibuprofen powder, time 8.
The mark [12] stands for this setting: Table 2, ibuprofen powder, time 10.
The mark [13] stands for this setting: Table 2, ibuprofen powder, time 15.
[14] abbreviates: Table 2, ibuprofen powder, time 20.
Setting [15] is: powder dissolution, pure active compound, phosphate buffer pH 7.4 USP XXIV.

Structures are written as SMILES.

Regarding `CC(C)Cc1ccc(C(C)C(=O)O)cc1` (stereo not drawn) [Commercial article, ibuprofen], the “Amount released [%] after 2 min” value is given as 15.1%. The “Amount released [%]” value under setting [1] was found to be 0.0%. Also, under setting [2], the “Amount released [%]” value came out at 15.1%. Further, under setting [3], the “Amount released [%]” value worked out at 36.9%. Besides, the “Amount released [%]” value under setting [4] is 59.5%. In addition, the “Amount released [%]” value under setting [5] turned out to be 73.9%. Moreover, the “Amount released [%]” value under setting [6] is listed as 98.0%. In addition, the “Amount released [%]” value under setting [7] stood at 99.0%. The “Amount released [%]” value under setting [8] amounted to 0.0%. Under setting [9], the “Amount released [%]” value is recorded as 15.1%. For the same compound, the “Amount released [%]” value under setting [10] worked out at 36.9%. Under setting [11], the “Amount released [%]” value was 59.5%. In addition, under setting [12], the “Amount released [%]” value worked out at 73.9%. Further, under setting [13], the “Amount released [%]” value was 98.0%. Also, the “Amount released [%]” value under setting [14] is 99.0%. Further, under setting [15], the “Time after which a 100% release / dissolution is seen” value is reported as above 15 min and the “Release / dissolution within (after) 2 minutes” value (shortened to “Release / dissolution within”) is reported as below 20%.

On to `CC(C)Cc1ccc(C(C)C(=O)O)cc1` (stereo not drawn) [Example 5, ibuprofen], for which, under setting [15], the “Time after which a 100% release / dissolution is seen” value was 5 min and the “Release / dissolution within” value was determined as 85%.

For `CC(C)Cc1ccc(C(C)C(=O)O)cc1` (stereo not drawn) [Example 14, ibuprofen], the “Rate of dissolution (in words)” value was “good rate of dissolution”.

Turning to `CC(C)Cc1ccc(C(C)C(=O)O)cc1` (stereo not drawn) [Example 15, ibuprofen], the “Rate of dissolution (in words)” value was “good rate of dissolution”.

On to `CC(C)Cc1ccc(C(C)C(=O)O)cc1` (stereo not drawn) [Example 11, ibuprofen], for which the “Rate of dissolution (in words)” value is recorded as “comparatively good rate of dissolution”, the “Active compound dissolved after 5 min” value is 81% and the “Active compound dissolved after 8 min” value is listed as 90%.

On to `CC(C)Cc1ccc(C(C)C(=O)O)cc1` (stereo not drawn) [Example 12, ibuprofen], for which the “Rate of dissolution (in words)” value is on record as “good rate of dissolution”, the “Active compound dissolved after 5 min” value is reported as 87% and the “Active compound dissolved after 8 min” value was 95%.

For `CC(C)Cc1ccc(C(C)C(=O)O)cc1` (stereo not drawn) [Suc. monolaurate + HPC, ibuprofen], the “Amount released [%] after 2 min” value came out at 100.8%.

For the compound `CC(C)Cc1ccc(C(C)C(=O)O)cc1` (stereo not drawn) [Additive: sucrose monolaurate, ibuprofen], the “Amount released [%] after 2 min” value is 85.2%. Moreover, the “Amount released [%]” value under setting [1] amounted to 0.0%. Also, the “Amount released [%]” value under setting [2] came to 85.2%. For the same compound, under setting [3], the “Amount released [%]” value turned out to be 98.8%. In addition, the “Amount released [%]” value under setting [4] amounted to 100.0%. Besides, the “Amount released [%]” value under setting [5] stood at 100.0%. In addition, under setting [6], the “Amount released [%]” value turned out to be 100.0%. The “Amount released [%]” value under setting [7] stood at 100.0%. Further, under setting [8], the “Amount released [%]” value stood at 0.0%. The “Amount released [%]” value under setting [9] turned out to be 85.9%. Under setting [10], the “Amount released [%]” value came out at 98.4%. The “Amount released [%]” value under setting [11] is reported as 99.5%. Further, under setting [12], the “Amount released [%]” value is given as 99.9%. Further, the “Amount released [%]” value under setting [13] is reported as 100.7%. In addition, the “Amount released [%]” value under setting [14] was found to be 100.6%.

Turning to `CC(C)Cc1ccc(C(C)C(=O)O)cc1` (stereo not drawn) [Example 4, ibuprofen], under setting [15], the “Time after which a 100% release / dissolution is seen” value stood at 5 min and the “Release / dissolution within” value is recorded as 85%.

In the case of `CC(C)Cc1ccc(C(C)C(=O)O)cc1` (stereo not drawn) [Example 18, ibuprofen], the “Time after which a 100% release / dissolution is seen” value under setting [15] is listed as “approximately 5 min”.

With `CC(C)Cc1ccc(C(C)C(=O)O)cc1` (stereo not drawn) [Example 7, ibuprofen], under setting [15], the “Time after which a 100% release / dissolution is seen” value is listed as 5 min and the “Release / dissolution within” value is 85%.

With `CC(C)Cc1ccc(C(C)C(=O)O)cc1` (stereo not drawn) [Suc. monolaurate + Kollicoat ® IR, ibuprofen], the “Amount released [%] after 2 min” value stood at 97.8%.

On to `CC(C)Cc1ccc(C(C)C(=O)O)cc1` (stereo not drawn) [Suc. monolaurate + Klucel ® LF, ibuprofen], for which the “Amount released [%] after 2 min” value turned out to be 98.9%.

`CC(C)Cc1ccc(C(C)C(=O)O)cc1` (stereo not drawn) [Example 1, ibuprofen]: the “Time after which a 100% release / dissolution is seen” value under setting [15] was 15 min.

Consider `CC(C)Cc1ccc(C(C)C(=O)O)cc1` (stereo not drawn) [Example 6, ibuprofen], for which, under setting [15], the “Time after which a 100% release / dissolution is seen” value was determined as 5 min and the “Release / dissolution within” value turned out to be 85%.

Take `CC(C)Cc1ccc(C(C)C(=O)O)cc1` (stereo not drawn) [Suc. monolaurate + dextran 200, ibuprofen]: the “Amount released [%] after 2 min” value is 100.4%.

Regarding `CC(C)Cc1ccc(C(C)C(=O)O)cc1` (stereo not drawn) [Solvent change without addition, ibuprofen], the “Amount released [%]” value runs as follows: under setting [1], 0.0%; under setting [2], 20.9%; under setting [3], 48.9%; under setting [4], 67.2%; under setting [5], 76.5%; under setting [6], 94.3%. In addition, under setting [7], the “Amount released [%]” value was found to be 100.0%.

Consider `COc1ccc2cc([C@H](C)C(=O)O)ccc2c1` [Example 2, naproxen], for which, under setting [15], the “Time after which a 100% release is seen” value was determined as 15 s.

On to `CC(C)Cc1ccc(C(C)C(=O)O)cc1` (stereo not drawn) [Suc. monolaurate + trehalose, ibuprofen], for which the “Amount released [%] after 2 min” value was 100.1%.

With `CC(C)Cc1ccc(C(C)C(=O)O)cc1` (stereo not drawn) [Example 13, ibuprofen], the “Rate of dissolution (in words)” value was “good rate of dissolution”, the “Active compound dissolved after 5 min” value came out at 92% and the “Active compound dissolved after 8 min” value was found to be 100%.
